Experimental data: patent US8178506B2, “Oligomeric compounds and compositions for use in modulation of small non-coding RNAs” (Regulus Therapeutics Inc., priority 2003, dated 2012)
“And” between values parts separate entries of the source, which are not always exact repeats. Identical values can stand only once. In the oligonucleotide strings, read from the 5' end, every base follows the letter of its sugar. An asterisk marks phosphorothioate; unmarked linkages are phosphodiester. Other units and linkages are bracketed, terminal groups are in braces. A string of capitals states the bases alone. e = 2'-O-(2-methoxyethyl) (MOE); [5mC] = 5-methylcytosine; d = 2'-deoxy (DNA)

System: HeLa cells
Assay: Cell cycle assay in HeLa cells
Format: cell-based, human
Settings: HeLa cells
[1] = 25 nM, 48 hours, percentage of cells in phase, average of replicates
[2] = 50 nM, 48 hours, percentage of cells in phase, average of replicates
[3] = 100 nM, 48 hours, percentage of cells in phase, average of replicates
[4] = 150 nM oligomeric compound, 24 hours, relative to untreated control (UTC = 100)
[5] = 150 nM oligomeric compound, 48 hours after treatment, relative to untreated control (UTC=100)
[6] = 150 nM, 48 hours, relative to untreated control
[7] = 150 nM, 48 hours, percentage of cells in phase, average of replicates

328403 (antisense eA*eG*eG*e[5mC]*e[5mC]*dT*dA*dT*dT*d[5mC]*d[5mC]*dT*dG*dT*dA*eG*e[5mC]*eA*eA*eA) [compound 328403]
% cells in cell cycle phase: G2/M (25 nM, 48 hours): 18% | % cells in cell cycle phase: G1 [1]: 58% | % cells in cell cycle phase: S [1]: 24% | % cells in cell cycle phase: aneuploid [1]: 13% | % cells in cell cycle phase: subG1 [1]: 1.5% | % cells in cell cycle phase: G2/M (50 nM, 48 hours): 20% | % cells in cell cycle phase: G1 [2]: 53% | % cells in cell cycle phase: S [2]: 27% | % cells in cell cycle phase: aneuploid [2]: 14% | % cells in cell cycle phase: subG1 [2]: 1.1% | % cells in cell cycle phase: G2/M (100 nM, 48 hours): 23% | % cells in cell cycle phase: G1 [3]: 48% | % cells in cell cycle phase: S [3]: 29% | % cells in cell cycle phase: aneuploid [3]: 11% | % cells in cell cycle phase: subG1 [3]: 3.5% | % cells aneuploid [4]: 53% and 82% | % cells in cell cycle phase G1 [4]: 70% and 86% | % cells in cell cycle phase G2/M [4]: 197% and 179% | % cells in cell cycle phase S [4]: 85% and 75% | % cells in cell cycle phase subG1 [4]: 284% and 189% | % cells in cell cycle phase: G1 [5]: 61% and 82% | % cells in cell cycle phase: G2/M [5]: 131% and 106% | % cells in cell cycle phase: S [5]: 177% and 148% | % cells in cell cycle phase: aneuploid [5]: 85% and 80% | % cells in cell cycle phase: G2/M (150 nM, 48 hours): 24% | % cells in cell cycle phase G1 [6]: 125% | % cells in cell cycle phase G2/M [6]: 80% | % cells in cell cycle phase S [6]: 89% | % cells in cell cycle phase aneuploid [6]: 175% | % cells in cell cycle phase subG1 [6]: 89% | % cells in cell cycle phase: G1 [7]: 37% | % cells in cell cycle phase: S [7]: 40% | % cells in cell cycle phase: aneuploid [7]: 13% | % cells in cell cycle phase: subG1 [7]: 8.2%

327957 (antisense e[5mC]*eA*e[5mC]*eA*eA*eG*eT*eT*e[5mC]*eG*eG*eA*eT*e[5mC]*eT*eA*e[5mC]*eG*eG*eG*eT*eT) [compound 327957]
% cells aneuploid [4]: 66% | % cells in cell cycle phase G1 [4]: 91% | % cells in cell cycle phase G2/M [4]: 145% | % cells in cell cycle phase S [4]: 88% | % cells in cell cycle phase subG1 [4]: 197% | % cells in cell cycle phase: G1 [5]: 65% | % cells in cell cycle phase: G2/M [5]: 127% | % cells in cell cycle phase: S [5]: 169% | % cells in cell cycle phase: aneuploid [5]: 85% | % cells in cell cycle phase: subG1 [5]: 864%

327944 (antisense eA*eA*eA*eG*eT*eG*eT*e[5mC]*eA*eG*eA*eT*eA*e[5mC]*eG*eG*eT*eG*eT*eG*eG) [compound 327944]
% cells aneuploid [4]: 50% | % cells in cell cycle phase G1 [4]: 85% | % cells in cell cycle phase G2/M [4]: 111% | % cells in cell cycle phase S [4]: 110% | % cells in cell cycle phase subG1 [4]: 165% | % cells in cell cycle phase: G1 [5]: 75% | % cells in cell cycle phase: G2/M [5]: 144% | % cells in cell cycle phase: S [5]: 129% | % cells in cell cycle phase: aneuploid [5]: 78% | % cells in cell cycle phase: subG1 [5]: 490%

327946 (antisense eA*eG*eG*e[5mC]*eG*eA*eA*eG*eG*eA*eT*eG*eA*e[5mC]*eA*eA*eA*eG*eG*eG*eA*eA) [compound 327946]
% cells aneuploid [4]: 43% | % cells in cell cycle phase G1 [4]: 90% | % cells in cell cycle phase G2/M [4]: 156% | % cells in cell cycle phase S [4]: 84% | % cells in cell cycle phase subG1 [4]: 225% | % cells in cell cycle phase: G1 [5]: 72% | % cells in cell cycle phase: G2/M [5]: 129% | % cells in cell cycle phase: S [5]: 150% | % cells in cell cycle phase: aneuploid [5]: 76% | % cells in cell cycle phase: subG1 [5]: 431%

327949 (antisense e[5mC]*eA*e[5mC]*eA*eA*eA*eT*eT*e[5mC]*eG*eG*eA*eT*e[5mC]*eT*eA*e[5mC]*eA*eG*eG*eG*eT*eA) [compound 327949]
% cells aneuploid [4]: 68% | % cells in cell cycle phase G1 [4]: 82% | % cells in cell cycle phase G2/M [4]: 172% | % cells in cell cycle phase S [4]: 84% | % cells in cell cycle phase subG1 [4]: 194% | % cells in cell cycle phase: G1 [5]: 66% | % cells in cell cycle phase: G2/M [5]: 138% | % cells in cell cycle phase: S [5]: 157% | % cells in cell cycle phase: aneuploid [5]: 71% | % cells in cell cycle phase: subG1 [5]: 773%
